For assay [1], the target named is T1, human monocyte-derived macrophages (HMDM) (Homo sapiens, UniProt Q16581).
T1 sequence (Q16581 1-482): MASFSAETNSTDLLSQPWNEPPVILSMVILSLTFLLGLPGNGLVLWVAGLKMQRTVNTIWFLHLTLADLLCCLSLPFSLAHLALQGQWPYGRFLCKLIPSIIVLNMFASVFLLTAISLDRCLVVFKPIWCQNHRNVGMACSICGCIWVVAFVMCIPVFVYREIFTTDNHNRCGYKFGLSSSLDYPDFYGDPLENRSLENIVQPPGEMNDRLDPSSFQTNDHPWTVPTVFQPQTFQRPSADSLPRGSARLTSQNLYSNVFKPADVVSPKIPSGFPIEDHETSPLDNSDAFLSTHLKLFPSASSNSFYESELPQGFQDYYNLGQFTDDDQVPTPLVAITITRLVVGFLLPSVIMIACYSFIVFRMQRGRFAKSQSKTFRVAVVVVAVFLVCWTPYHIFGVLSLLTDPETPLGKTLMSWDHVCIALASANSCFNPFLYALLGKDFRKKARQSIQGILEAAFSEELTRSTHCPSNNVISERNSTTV
Briefly: xCELLigence cell impedance assay, agonist activity on HMDM. It is filed as cell-based. Conditions: for EC50: xCELLigence impedance, dose-response, serum-free IMDM, 37 °C, n=3–5; for response in initial single dose screen: single dose of 8 μM, n=4–6, hit = P<0.001; for xCELLigence response profile: C3a and C5a at 100 nM. As to the method:
Human monocytes were isolated from blood donations to the Australian Red Cross Blood Service (Kelvin Grove, Queensland). The isolation of mononuclear cells was as described previously by [Halai and Cooper (2012)]. Briefly, the mononuclear cell layer was separated using density gradient centrifugation with Ficoll-Paque Plus (GE Healthcare). MACS magnetic beads (Miltenyi Biotec) were incubated with the cells for 15 min at 4 °C before passing through an LS column (Miltenyi Biotec) to select for the CD14+ cells. Selected monocytes were plated at a density of 1.5×10^7 in Iscove׳s Modified Dulbecco׳s Medium (IMDM) (Invitrogen Life Technologies) containing L-glutamine supplemented with 10% Fetal Bovine Serum (FBS), 50 IU/ml penicillin and 50 μg/ml streptomycin. Human macrophage colony-stimulating factor (M-CSF) (Peprotech) was added to media to allow cells to differentiate into human monocyte-derived macrophages (HMDM). Over the 7 day differentiation process, cells were incubated at 37 °C and 5% CO2.
(§1) HMDM were seeded overnight at 30,000 cells/well in 384-well E-Plates (Roche). Approximately 24 h later, HMDM media were exchanged for serum-free IMDM and equilibrated at 37 °C and 5% CO2 for 2 h prior to ligand addition. Ligands were prepared at a final DMSO concentration of 0.5% (or less) in serum-free IMDM. […] After agonist addition, measurements were taken continuously for ~1.5 h at 37 °C. The RTCA software was used for data analysis, with statistical analysis using GraphPad Prism 5.0c (GraphPAD Software Inc., San Diego, CA).

For a further assay, the target named is T2, human C3a receptor (Homo sapiens, UniProt Q16581).
T2 construct: expressed in transfected cells; host or cells: RBL-2H3 (rat basophilic leukemia) cells
T2 sequence (Q16581 1-482): T1 sequence (Q16581 1-482)
Description: RBL-2H3 degranulation assay (β-hexosaminidase), agonist, human C3a receptor. Conditions: RBL-2H3 transfected with human C3a receptor, 100 µM peptide (Fig. 3 legend: 50 μM), 15 min, β-hexosaminidase secretion, relative to FLPLAR. Type of assay: cell-based. As to the method: RBL-2H3 cells transfected with either human C5a1 or human C3a receptor ([Cain and Monk, 2002]) were routinely cultured in Dulbecco׳s Modified Eagle׳s Medium, 10% (v/v) fetal calf serum, and 400 mg/l G-418 at 37 °C in 5% CO2. Degranulation was measured by assaying for β-hexosaminidase activity in the cell supernatant, as described previously ([Monk et al., 1994]). In agonist assays, degranulation was calculated as a percentage of maximal activity in response to 200 nM recombinant human C3a, human C5a ([Cain and Monk, 2002]), or 10 nM agonist hexapeptide, FLPLAR ([Scully et al., 2010]). […]
RBL-2H3 cells transfected with either human C5a1 or human C3a receptor ([Cain and Monk, 2002]) were used to confirm hits detected in HMDM, using degranulation as a read-out ([Monk et al., 1994]). In cells transfected with C5a1, very weak agonist activity was detected in two groups of peptides, although even at 100 µM (the maximal dose achievable in the presence of the DMSO, which has adverse effects >1%), the activation obtained was 5–10% of the maximum activation achieved by a high dose of C5a (Fig. 3, top panel). […]
Fig. 3 Agonist activity of peptides at human C5a1 and C3a receptors expressed in rat basophilic leukemia cells (RBL-2H3). […] Degranulation was measured as the secretion of β-hexosaminidase. […]

The subject of a further assay is C5a receptors. Particulars: ref Taylor and Fairlie, 2005; cited from earlier work. The source says: C3a receptor/C5a1 promiscuity is not unusual and has been previously observed for whole C3a and a synthetic peptide agonist ([Ames et al., 1996]) and a chimeric C5a with the C3a C-terminal pentapeptide ([Bautsch et al., 1992]). In fact, early efforts to create potent and selective antagonists of C5a1 led to only partial agonists ([Taylor and Fairlie, 2005]).

Another assay deals with C3a receptor (Homo sapiens, UniProt Q16581). Description: xCELLigence, antagonism of peptide-evoked response by C3a receptor antagonist SB 290157 in HMDM. Type of assay: cell-based. Particulars: n=3–5. As to the method:
as §1

Ends that are not written are not given here.

As usually defined, the EC50 is the concentration giving half of the maximal effect. A word on the IC50: it is the concentration that inhibits the measured activity by half.

On to Ac-RLYPLWR-OH [Peptide 47, Ac-RLYPLWR], for which the EC50 in assay [1] is 1200 nM. In assay [1] (xCELLigence), the “response in initial single dose screen” value is recorded as “significant hits”.

In the case of Ac-NNYNLWR-OH [Peptide 20, Ac-NNYNLWR], the EC50 in assay [1] was determined as 5800 nM. In assay [1] (xCELLigence), the “response in initial single dose screen” value is “significant hits”.

With “C3a: complement fragment C3a, 77-residue protein, recombinant human [Peptide C3a]”, the xCELLigence response profile result in assay [1] is “single peak profile”. For the same molecule, in assay [1] (xCELLigence), the “cell index (intensity of the signal)” value was 1.98 and the “time of signal peak after addition” value was ~ 1 min.

As to Ac-RYPLWR-OH [Peptide 54, Ac-RYPLWR], at human C3a receptor, the “activation of C3a receptor (degranulation)” value is recorded as “very strong activation”. In addition, the EC50 in assay [1] is 3000 nM. For the same molecule, in assay [1] (xCELLigence), the “response in initial single dose screen” value is “significant hits”.

With Ac-TLLRLWR [Peptide 48], the “outcome of full dose range retest” value in assay [1] (xCELLigence, full dose range) is “a full dose response could not be obtained”. Also, in assay [1] (xCELLigence), the “response in initial single dose screen” value is recorded as “significant hits”.

In the case of “AcPhe[Lornithine-Pro-D-cyclohexylalanine-Trp-Arg] (sidechain bridge or staple) [PMX53, cyclic C5a1 antagonist]”, the receptor affinity entry with C5a receptors is on record as “low nanomolar range”.

In the case of Ac-RHYPLWR-OH [Peptide 31, Ac-RHYPLWR], at human C3a receptor, the “activation of C3a receptor (degranulation)” value is on record as “very strong activation”. The molecule also showed an EC50 in assay [1] of 1100 nM. Further, the “response in initial single dose screen” value in assay [1] (xCELLigence) is reported as “significant hits”.

As to `N=C(N)NCCC[C@H](NC(=O)COCC(c1ccccc1)c1ccccc1)C(=O)O` [SB 290157], the IC50 is 1.3 nM at C3a receptor (agonist peptide 20 at about its EC50, antagonist pre-incubated 1 h); 67 nM on C3a receptor (agonist peptide 31 at about its EC50, antagonist pre-incubated 1 h); 44 nM at C3a receptor (agonist peptide 47 at about its EC50, antagonist pre-incubated 1 h); 15 nM at C3a receptor (agonist peptide 49 at about its EC50, antagonist pre-incubated 1 h); 29 nM at C3a receptor (agonist peptide 54 at about its EC50, antagonist pre-incubated 1 h).

In the case of Ac-TIYRLWR [Peptide 49, Ac-TIYRLWR], the concentration giving a half-maximal response (EC50) in assay [1] was 17000 nM.

B1: C5a: complement fragment C5a, 74-residue protein, human (protein, UniProt P01031 678-751, looked up)
C5a anaphylatoxin: TLQKKIEEIAAKYKHSVVKKCCYDGACVNNDETCEQRAARISLGPRCIKAFTECCVVASQLRANISHKDMQLGR
modifications: C5a anaphylatoxin
notes: complement fragment C5a, 74-residue protein, human
Turning to B1, in assay [1], the xCELLigence response profile entry was “two-peak profile”. In assay [1] (xCELLigence), the “cell index (intensity of the signal)” value is recorded as 4.53 and the “time of signal peak after addition” value is on record as ~ 4 min.

Source of the values: article PMC4263610, “Derivation of ligands for the complement C3a receptor from the C-terminus of C5a” (European Journal of Pharmacology, 2014).
